This is an account of results in patent US20090043123A1, “Dilute Stabilized Peracetic Acid Production and Treatment Process” (priority 2007, published 2009).

The conditions of data set [1]: aqueous solution; cited from earlier work.
Data set [2] can be described thus: Stability/decomposition of peracetic acid formed in buffered aqueous medium (Example 1, FIG. 4). In kind it is physicochemical. The settings on record: 25° C. From the text:
The mole ratio of hydrogen peroxide to acetic anhydride used in this Example 1 was 5.7 moles H2O2 per mole of acetic anhydride, a mole ratio that provided a large stoichiometric excess of hydrogen peroxide. Three pH values were used: 10.0, 6.8 and 4.5. The aqueous medium in each study was appropriately buffered to maintain the specific pH value throughout the duration of the run.
In each of the three runs, the operating procedure was as follows. A dilute aqueous buffered hydrogen peroxide solution, containing 585 ppm H2O2, was prepared and maintained at a temperature of 25° C. No hydrogen peroxide stabilizers were added to the solution. Acetic anhydride, undiluted (i.e., 100%) and in an amount sufficient to provide the desired 5.7:1 mole ratio of H2O2:acetic anhydride, was added to the buffered hydrogen peroxide solution. Measurements of peracetic acid and hydrogen peroxide concentrations were obtained from samples taken periodically over a period of 180 minutes. Results of these three studies, as peracetic acid concentration vs. time, are plotted in the graph shown as FIG. 4.

Data set [3] relates to microorganisms. The settings on record: as low as 1 or 2 ppm peracetic acid; cited from earlier work.
The conditions of data set [4]: cited from earlier work.

With Peracetic acid, the “acid dissociation constant (pKa)” value in data set [1] is on record as 8.2. The peracetic stability entry in data set [2] (pH 6.8, buffered aqueous medium, 5.7:1 H2O2:acetic anhydride, followed over 180 minutes) was “relatively good”. The “decomposition of the peracetic acid formed” value in data set [2] (pH 10.0, buffered aqueous medium, after peracetic acid formation was complete) was “high”. The “activity at very low concentrations” value in data set [3] is “very active”.

As to `CC(=O)OC(C)=O` [Acetic anhydride], in data set [4], the solubility in water result is reported as “less than 3 wt %”.
